Assays:
Assay type in all cases: biochemical
RecG⋅DNA(A40:B40) = molecular target: T1, RecG⋅DNA(A40:B40) (Thermotoga maritima, UniProt Q9WY48); assay: Pi release with excess ATP, global fit to ATPase cycle model; conditions: 0.5 µM RecG, 2.5 µM DNA (A40:B40)
T1 construct: made in house
T1 sequence (Q9WY48 1-780): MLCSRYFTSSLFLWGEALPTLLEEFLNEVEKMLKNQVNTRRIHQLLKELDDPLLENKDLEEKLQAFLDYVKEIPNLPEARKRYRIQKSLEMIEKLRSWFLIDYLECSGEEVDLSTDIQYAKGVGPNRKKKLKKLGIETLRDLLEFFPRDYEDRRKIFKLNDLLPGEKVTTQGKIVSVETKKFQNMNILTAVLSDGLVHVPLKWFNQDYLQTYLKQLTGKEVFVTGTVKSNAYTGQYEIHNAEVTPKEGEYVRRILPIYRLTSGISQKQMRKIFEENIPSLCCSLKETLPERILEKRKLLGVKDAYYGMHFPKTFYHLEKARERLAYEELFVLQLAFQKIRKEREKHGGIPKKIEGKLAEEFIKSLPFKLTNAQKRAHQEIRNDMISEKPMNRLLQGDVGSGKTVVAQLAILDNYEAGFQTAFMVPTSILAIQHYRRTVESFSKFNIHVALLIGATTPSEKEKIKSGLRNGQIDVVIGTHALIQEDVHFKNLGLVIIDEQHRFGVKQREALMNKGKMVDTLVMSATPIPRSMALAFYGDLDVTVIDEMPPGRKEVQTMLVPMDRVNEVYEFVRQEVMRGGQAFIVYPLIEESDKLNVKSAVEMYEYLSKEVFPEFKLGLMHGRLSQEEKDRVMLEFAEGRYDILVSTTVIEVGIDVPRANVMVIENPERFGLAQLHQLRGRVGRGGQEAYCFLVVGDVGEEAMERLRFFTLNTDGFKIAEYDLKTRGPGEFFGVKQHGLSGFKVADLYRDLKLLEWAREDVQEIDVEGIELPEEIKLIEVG
Protocol: The rate of Pi release was measured after mixing RecG⋅DNA with excess ATP, using the phosphate biosensor, in the stopped-flow apparatus (Figure 6A). […] Both phases are dependent on ATP concentration. The lag decreased, while the rate of the linear phase increased with greater concentrations of ATP. The lag is due to the steps prior to Pi release, namely ATP binding and cleavage. […] Such a burst phase would result from the relatively fast Pi release of the initial cycle before the Pi release of subsequent cycles was limited by slow ADP release.
Figure 6 ATPase cycle measurements with unmodified nucleotides. (A) Phosphate measurements at different ATP concentrations. 0.5 µM RecG, premixed with 2.5 µM DNA (A40:B40), was then mixed in the stopped-flow apparatus with ATP at the micromolar concentrations shown, in the presence of 10 µM MDCC-PBP. (B) Best fit time courses of the Pi release, based upon a model of the ATPase cycle, as described in the text. Curves were obtained by glogal fitting the curves at different concentrations, using Global kinetic Explorer. Note that in comparison, the experimental time courses show a small transient of Pi at times <100 ms. This is likely to be due to free Pi and this behavior, overlaying a lag, has been observed previously in multi-turnover measurements. (C) ADP Release kinetics. 10 µM RecG⋅DNA (A40∶B40) was pre-bound with 10 µM ADP before mixing with an excess of mantADP (20 µM): these concentrations are final in the mixing chamber. The increase in fluorescence was fitted to single exponential giving the dissociation rate constant of 11.4 (±2.2) s^−1. Rate constants were independent of mantADP concentration in the range of 20–80 µM.
A scheme of the ATPase cycle (Figure 2) was used to simulate the data to assess the individual rate constants. […] The simulated traces (Figure 6B) were obtained from a global fit to the experimental data. This was done by allowing only the rate constants that have maximum influence on the curve shapes to vary. Cleavage and Pi release were assumed to be irreversible. For the fit, Pi release was fixed at 100 s^–1, ADP release at 12.5 s^–1, as the fitting was relatively insensitive to changes in these constants. […] The resulting best fit gave rate constants for ATP binding as 0.65 (±0.02) µM^−1s^−1, dissociation of ATP as 10.0 (±0.6) s^−1, cleavage as 7.1 (±0.1) s^−1. The fit gave a cleavage rate constant similar to the value of k cat from the steady-state analysis (Table 1a). The rate constant for ADP release may be only slightly larger than that of cleavage step.
Data were fitted to theoretical equations using the stopped-flow software or Grafit. Kinetic simulations were performed using Berkeley Madonna (Version 8.3, University of California at Berkeley) and using Global Kinetic Explorer (Kintek). […]

RecG [1] = molecular target: T2, RecG (Thermotoga maritima, UniProt Q9WY48); assay: Steady-state ATPase rate measurements with phosphate biosensor MDCC-PBP; conditions: no DNA, 20°C, 10 nM RecG
T2 construct: made in house
T2 sequence (Q9WY48 1-780): T1 sequence (Q9WY48 1-780)

[2] = molecular target: T3, RecG with three-strand DNA junction (A40:B40:C19) (Thermotoga maritima, UniProt Q9WY48); assay: Single turnover ATPase measurements with three-strand junction
T3 construct: made in house
T3 sequence (Q9WY48 1-780): T1 sequence (Q9WY48 1-780)
Protocol: Therefore, mantATP binding, quench-flow and phosphate measurements were carried out using with sub-stoichiometric mantATP, but with a non-complementary three-strand DNA junction (A40:B40:C19) to form a lagging strand duplex (as defined in Figure 1A). With excess mantATP, the duplex arm of this junction was unwound by the helicase, leaving RecG bound to the two-strand junction with the third strand displaced. With sub-stoichiometric mantATP, there was only a single turnover, so only partial unwinding of this DNA substrate occurred. The kinetics (Figure S2) were similar to those with the two-strand junction with mantATP binding at 4.2 (±0.4) s^−1, hydrolysis at 0.39 (±0.1) s^−1 and fast Pi release.
Supplementary file pone.0038270.s002.tif: Figure S2 Kinetic measurements of mantATP with excess of RecG and a Three-strand DNA Junction. The concentrations for all experiments were 0.5 µM mantATP, 2.5 µM RecG, 5 µM DNA Junction (A40:B40:C19) and 10 µM MDCC-PBP (for Pi measurement). All measurements were carried out under the conditions of Figure 4. Time course of mant fluorescence (continuous line), mantADP formation (circles) and Pi release (dashed line). […] (TIF) Click here for additional data file.

RecG [3] = molecular target: T2, RecG; assay: Phosphate-water oxygen exchange during hydrolysis; conditions: 20°C, Table 2 summary
[4] = three-strand junction A40:B40:C19, sub-stoichiometric mantATP

Compound | cleavage (global fit) (RecG⋅DNA(A40:B40)) | dissociation of ATP (global fit) (RecG⋅DNA(A40:B40)) | rate constant for ATP binding (global fit) (RecG⋅DNA(A40:B40)) | K m (RecG [1]) | k cat (RecG [1]) | Pi release ([2]; three-strand junction A40:B40:C19, result in words) | hydrolysis rate [2, 4] | mantATP binding rate [2, 4] | k −2 (reverse of cleavage) (RecG [3]) [s⁻¹]
Nc1ncnc2c1ncn2[C@@H]1O[C@H](COP(=O)(O)OP(=O)(O)OP(=O)(O)O)[C@@H](O)[C@H]1O [ATP] | 7.1 (±0.1) s^−1 | 10.0 (±0.6) s^−1 | 0.65 (±0.02) µM^−1s^−1 | 7.5 (±3.1) µM | 0.2 (±0.1) s^−1 |  |  |  | 
CNc1ccccc1C(=O)O[C@H]1[C@@H](O)[C@H](n2cnc3c(N)ncnc32)O[C@@H]1COP(=O)(O)OP(=O)(O)OP(=O)(O)O [mantATP, 2′(3′)-O-(N-methylanthraniloyl)ATP] |  |  |  |  |  | fast | 0.39 (±0.1) s^−1 | 4.2 (±0.4) s^−1 | <0.01
